{"source": "patent US11806313B2", "about": "“Abiraterone acetate containing composition and application thereof” (Hunan Huize Biopharma S & T Co., Ltd, priority 2021, dated 2023)", "key": {"[1]": {"format": "physicochemical", "description": "Therefore, the self-microemulsion system of the present invention can choose the mixture of glycerol monolinoleate (CC) and medium chain triglyceride (MCT) as the oil phase. […] Accordingly, when glycerol monolinoleate and medium chain triglyceride are used in combination as the oil phase, in order to ensure a larger drug loading capacity, the amount of CC in the oil phase should be as much as possible, while the amount of MCT should be as little as possible.\nWhen PEG-40 hydrogenated castor oil (RH40) and 2-(2-ethoxyethoxy)ethanol (HP) are used in combination as the emulsion phase, in order to ensure the emulsification effect of the self-microemulsion system and to ensure a large drug loading capacity, one should increase the amount of RH40 in the emulsion phase while also reduce the amount of HP as much as possible."}, "[2]": {"details": "cited from earlier work"}, "[3]": {"details": "cited from earlier work", "remark": "listed apart in the source"}, "[4]": {"details": "high-fat diet (57% fat, 825 calories)"}, "[5]": {"details": "low-fat diet (7% fat, 300 calories)"}}, "data": [{"smiles": "CC(=O)O[C@H]1CC[C@@]2(C)C(=CC[C@@H]3[C@@H]2CC[C@]2(C)C(c4cccnc4)=CC[C@@H]32)C1", "note": "[abiraterone acetate, (3β)-17-(3-pyridyl)androsta-5,16-dien-3-yl acetate]", "values": [{"measurement": "solubility in 2-(2-ethoxyethoxy)ethanol (HP)", "setting": "[1]", "result": "about 69.0 mg/g"}, {"measurement": "solubility in PEG-40 hydrogenated castor oil (RH40)", "setting": "[1]", "result": "about 24.7 mg/g"}, {"measurement": "solubility in glycerol monolinoleate (CC)", "setting": "[1]", "result": "about 62.9 mg/g"}, {"measurement": "solubility in medium chain triglyceride (MCT)", "setting": "[1]", "result": "about 28.4 mg/g"}, {"measurement": "increase of AUC0-∞ with food", "setting": "[2]; [4]", "result": "~10", "unit": "times"}, {"measurement": "increase of Cmax with food", "setting": "[2]; [4]", "result": "about 17 times"}, {"measurement": "increase of AUC0-∞ of abiraterone with food", "setting": "[2]; [5]", "result": "~5", "unit": "times"}, {"measurement": "increase of Cmax of abiraterone with food", "setting": "[2]; [5]", "result": "about 7 times"}, {"measurement": "solubility in water", "setting": "[3]", "result": "less than 0.01 mg/ml"}]}]}
